“And” between values parts separate entries of the source, which are not always exact repeats. Equal values may be shown once.
Tests used:
[1] = LNP characterization of base editor LNP preparations (DLS diameter, PDI, encapsulation efficiency); assay type: physicochemical
Protocol: (§1) Lipid nanoparticle components are dissolved in 100% ethanol at specified lipid component molar ratios. mRNA encoding an adenine base editor and a chemically-modified sgRNA is dissolved at a mass ratio of 1:1 in 10 mM citrate, 100 mM NaCl, pH 4.0, resulting in a concentration of NA cargo of approximately 0.22 mg/mL. LNP preparations are formulated with molar ratios of either 50% Ionizable Lipid: 38.5% Cholesterol: 1.5% PEG2000-DMG: 10% DSPC or 47.5% Ionizable Lipid: 40% Cholesterol: 2.5% PEG2000-DMG: 10% DSPC both at a total lipid to NA molar ratio of 6.
(§2) LNP preparations are formed by microfluidic mixing of the lipid and NA solutions using a Precision Nanosystems NanoAssemblr Ignite Instrument, according to the manufacturer's protocol. A 3:1 ratio of aqueous to organic solvent is maintained during mixing using differential flow rates. After mixing, LNP preparations are collected, diluted in PBS (approximately 2:1 v/v), and further buffer exchange is conducted using dialysis in PBS at 4° C. for 8 to 24 hours against a 20 kDa filter. After this initial dialysis, each individual LNP preparation is characterized via dynamic light scattering (DLS) to measure size and polydispersity. pKa of a subpopulation of LNP preparations is measured via TNS assay. After dialysis, LNP preparations are sterile filtered using 0.22 micron sterile filter and stored at 4° C. for further use. In some embodiments, LNP preparations may be concentrated using 100 kDa Amicon filters per manufacturer's protocol.
DLS—LNP preparation hydrodynamic diameter and polydispersity index (PDI) is measured using high throughput dynamic light scattering (DLS) (DynaPro plate reader II, Wyatt). LNP preparations are diluted 1×PBS to an appropriate concentration and analyzed.
Concentration of NA is determined by Qubit microRNA kit (for siRNA) or HS RNA kit (for mRNA) per manufacturer's instructions. Encapsulation efficiency is determined by measuring unlysed and lysed LNPs.

ALAS1 target site = test: In vivo base editing with ABE mRNA and sgRNA targeting ALAS1; set-up: species or system Balb/c mice; conditions: for Liver Editing A->G (%): 4 days after dosing
Protocol: as §1, §2
Male Balb/C mice aged approximately 8-12 weeks are used in the experiments described herein. Each mouse is temporarily restrained, and LNP preparations are administered IV via tail vein injection. Age-matched mice are also used to administer vehicle (1×PBS) via tail vein injection as a control. Four to six days post-dose, tissues including liver, spleen, heart and muscle are collected (only liver and muscle (quardracept) are reported). Genomic DNA is isolated and fragmented and adapter-ligated using the Nextera DNA Flex Library Prep Kit (Illumina) using the 96-well plate Nextera indexing primers (Illumina), according to the manufacturer's instructions. Library size and concentration is confirmed by Fragment Analyzer (Agilent) and sent to Novogene for whole genome sequencing using an Illumina HiSeq.
For base editing, mRNA encoding an adenine base editor (ABE) and a guide RNA (sgRNA) targeting ALAS1 at 1:1 (mass ratio) are coencapsulated in LNP preparations as described herein. LNP preparations are administrated into Balb/c mice through tail vein injections at concentrations ranging from 0.05 to 3.0 mg/kg total RNA. At 4 days after dosing, mice are euthanized and liver, spleen and bone barrow are harvested. Base editing is determined by performing targeted deep sequencing analysis at the ALAS1 target site using extracted genomic DNA.

[2] = LNP preparation characterization (encapsulation efficiency, DLS size and polydispersity), barcoded screen LNPs; assay type: physicochemical; conditions: LNP 47.5% ionizable lipid: 40% cholesterol: 2.5% PEG-2000 DMG: 10% DPSC, N/P 4.5-6; for AVG PDI / AVG Z Dia (nm): DLS
Protocol: Lipid nanoparticle components were dissolved in 100% ethanol at specified lipid component molar ratios. Nucleic acid (NA) cargo was dissolved in 10 mM citrate, 100 mM NaCl, pH 4.0, resulting in a concentration of NA cargo of approximately 0.22 mg/mL. In some embodiments, NA cargos included both a functional NA and a reporter barcode mixed at mass ratios of 1:10 to 10:1 functional NA to barcode. As described herein, a NA can be a siRNA, an anti-sense, an expressing DNA, or mRNA.
LNP preparations were prepared with 47.5% Ionizable Lipid (e.g., a compound provided herein): 40% cholesterol: 2.5% PEG-2000 DMG: 10% DPSC and an N/P ratio range of 4.5-6. LNP preparations were formed by microfluidic mixing of the lipid and NA solutions using Precision Nanosystems NanoAssemblr Spark or Benchtop series Instruments, according to the manufacturer's protocol.
A ratio of aqueous to organic solvent of approximately 2:1 or 3:1 was maintained during mixing using differential flow rates. After mixing, LNP preparations were collected, diluted in phosphate buffer saline (PBS) or Tris-buffered saline (TBS) (approximately 1:1 v/v). Further buffer exchange was conducted using dialysis in PBS or TBS at 4° C. for 4 to 24 hours against a 20 kDa filter. After this initial dialysis, each individual LNP preparation may be characterized via dynamic light scattering (DLS) to measure the size (e.g., diameter) and polydispersity. LNP preparations falling within specific diameter and polydispersity ranges were pooled, and further dialyzed against PBS or TBS at 4° C. for 1 to 4 hours against a 100 kDa dialysis cassette. After the second dialysis, LNP preparations were sterile filtered using 0.22 μm filter and stored at 4° C. for further use.

[3] = Table C LNPs, formulation ratio 47.5:40:2.5:10, ABE mRNA/ALAS1 sgRNA
[4] = Table D LNPs, formulation ratio 50:38.5:1.5:10, ABE mRNA/ALAS1 sgRNA
[5] = dose 0.05 MPK IV, formulation ratio 50:38.5:1.5:10, liver
[6] = dose 3 MPK IV, formulation ratio 47.5:40:2.5:10, quadricep muscle
[7] = dose 3 MPK IV, formulation ratio 50:38.5:1.5:10, quadricep muscle
[8] = dose 3 MPK IV, formulation ratio 50:38.5:1.5:10, liver

SMILES | Diameter (nm) [1, 3] | EE (%) [1, 3] | PDI (%) [1, 3] | Diameter (nm) [1, 4] | EE (%) [1, 4] | Liver Editing A->G (%) (ALAS1 target site; [5]) | Quadrecept Editing A->G (%) (ALAS1 target site; [6]) | AVG EE(%) [2] | AVG PDI [2] | PDI (%) [1, 4] | Liver Editing A->G (%) (ALAS1 target site; dose 0.1 MPK IV, formulation ratio 47.5:40:2.5:10, liver) | Quadrecept Editing A->G (%) (ALAS1 target site; dose 0.1 MPK IV, formulation ratio 47.5:40:2.5:10, quadricep muscle) | Quadrecept Editing A->G (%) (ALAS1 target site; [7]) | AVG Z Dia (nm) [2] | Liver Editing A->G (%) (ALAS1 target site; [8]) | Liver Editing A->G (%) (ALAS1 target site; dose 1.5 MPK IV, formulation ratio 50:38.5:1.5:10, liver) | Quadrecept Editing A->G (%) (ALAS1 target site; dose 1.5 MPK IV, formulation ratio 50:38.5:1.5:10, quadricep muscle)
C=CCCCCCC(CCCCCC=C)OC(=O)CCCCCC(=O)OCC(COC(=O)CCCCCC(=O)OC(CCCCCC=C)CCCCCC=C)COC(=O)OCC1CCCN(CC)C1 (stereo not shown) [Compound (25), O1-[2-[(1-ethyl-3-piperidyl)methoxycarbonyloxymethyl]-3-[7-(1-hept-6-enyloct-7-enoxy)-7-oxo-heptanoyl]oxy-propyl] O7-(1-hept-6-enyloct-7-enyl) heptanedioate] | 75.47 nm | 99.1% | 1.2% | 79.55 nm | 96.9% | 0.27% | 2.93% | 94.4% | 0.12 | – | – | – | – | – | – | – | –
C=CCCCC(CCCC=C)COC(=O)CCCCCC(=O)OCC(COC(=O)CCCCCC(=O)OCC(CCCC=C)CCCC=C)COC(=O)CCCN1CCCC1 [Compound (18), 1-(2-{[(7-Oxo-7-{[2-(pent-4-en-1-yl)hept-6-en-1-yl]oxy}heptanoyl)oxy]methyl}-3-{[4-(pyrrolidin-1-yl)butanoyl]oxy}propyl) 7-[2-(pent-4-en-1-yl)hept-6-en-1-yl] heptanedioate] | 106 nm | 93.9% | 16.9% | 149.3 nm | 88.58% | – | – | 98.2% | 0.07 | 13.1% | 0.99% | 0.29% | 2.5% | 138.63 nm | – | – | –
C=CCCCC(CCCC=C)OC(=O)CCCCC(=O)OCC(COC(=O)CCCCC(=O)OC(CCCC=C)CCCC=C)COC(=O)CCCN1CCCC1 [Compound (33), 1-[2-({[6-Oxo-6-(undeca-1,10-dien-6-yloxy)hexanoyl]oxy}methyl)-3-{[4-(pyrrolidin-1-yl)butanoyl]oxy}propyl] 6-undeca-1,10-dien-6-yl hexanedioate] | – | – | – | 179.7 nm | 75.69% | – | – | 98.3% | 0.10 | 23.4% | – | – | 0.1% | 133.71 nm | – | – | –
C=CCCCCCCC(CCCCCCC=C)OC(=O)CCCCC(=O)OCC(COC(=O)CCCCC(=O)OC(CCCCCCC=C)CCCCCCC=C)COC(=O)CCCN1CCCC1 [Compound (3), 1-Heptadeca-1,16-dien-9-yl6-[2-({[6-(hentadeca-1,16-dien-9-yloxy)-6-oxohexanoyl]oxy}methyl)-3-{[4-(pyrrolidin-1-yl)butanoyl]oxy}propyl]hexanedioate] | – | – | – | 69.8 nm | 99.3% | – | – | 85.3% | 0.13 | 11.9% | – | – | 3.8% | 77.22 nm | 69.43% | – | –
C=CCCCCCC(CCCCCC=C)OC(=O)CCCCCC(=O)OCC(COC(=O)CCCCCC(=O)OC(CCCCCC=C)CCCCCC=C)COC(=O)NCCN1CCCC1 [Compound (26), O1-[2-[[7-(1-hept-6-enyloct-7-enoxy)-7-oxo-heptanoyl]oxymethyl]-3-(2-pyrrolidin-1-ylethylcarbamoyloxy)propyl] O7-(1-hept-6-enyloct-7-enyl) heptanedioate] | 75.47 nm and 81.14 nm | 99.1% and 99% | 1.2% and 9.4% | 79.5 nm | 98.3% | 0.41% | 7.26% | 93.4% | 0.08 | 22.3% | – | – | – | 82.14 nm | – | – | –
O=C(CCCCCCC(=O)OC(CCCCCC(F)(F)F)CCCCCC(F)(F)F)OCC(COC(=O)CCCCCCC(=O)OC(CCCCCC(F)(F)F)CCCCCC(F)(F)F)COC(=O)CCCN1CCCC1 [Compound (16), 1-(1,1,1,13,13,13-Hexafluorotridecan-7-yl)-8-{2-[({8-[(1,1,1,13,13,13-hexafluorotridecan-7-yl)oxy]-8-oxooctanoyl}oxy)methyl]-3-{[4-(pyrrolidin-1-yl)butanoyl]oxy}propyl} octanedioate] | – | – | – | 96.8 nm | 96.3% | – | – | 64.3% | 0.09 | 13.5% | – | – | 0.6% | 129.85 nm | 72.41% | – | –
CC/C=C\CCCC(CCC/C=C\CC)OC(=O)CCCCC(=O)OCC(COC(=O)CCCCC(=O)OC(CCC/C=C\CC)CCC/C=C\CC)COC(=O)CCCN1CCCC1 [Compound (12), 1-{2-[({6-Oxo-6-[(3Z,12Z)-pentadeca-3,12-dien-8-yloxy]hexanoyl}oxy)methyl]-3-{[4-(pyrrolidin-1-yl)butanoyl]oxy}propyl}6-(3Z,12Z)-pentadeca-3,12-dien-8-yl hexanedioate] | – | – | – | 82.7 nm | 72.57% | – | – | 63.6% | 0.12 | 17.4% | – | – | 0.22% | 105.44 nm | – | – | –
CCC/C=C\CCC(CC/C=C\CCC)OC(=O)CCCCCC(=O)OCC(COC(=O)CCCCCC(=O)OC(CC/C=C\CCC)CC/C=C\CCC)COC(=O)CCCN1CCCC1 [Compound (23), 1-{2-[({7-Oxo-7-[(4Z,11Z)-pentadeca-4,11-dien-8-yloxy]heptanoyl}oxy)methyl]-3-{[4-(pyrrolidin-1-yl)butanoyl]oxy}propyl} 7-(4Z,11Z)-pentadeca-4,11-dien-8-ylheptanedioate] | – | – | – | 72.6 nm | 98.18% | – | – | 85.8% | 0.12 | 11.4% | – | – | – | 78.47 nm | – | 80.09% | 4.81%

— patent US20260176283A1, “IONIZABLE LIPIDS WITH LINEAR HEAD GROUPS” (Beam Therapeutics Inc., priority 2023, published 2026)
